Data as given in patent publication US6413975B1, “Purine derivatives having phosphodiesterase iv inhibition activity” (Euro-Celtique, S.A., priority 1999, dated 2002).
Structures can show the parent of a compound that is named as a salt. Where two headings read alike, the source gives them in different places. One block for each compound: values may come before it.

Tested on: Type IV PDE
Experiment: PDE IV inhibition: hydrolysis of [3H]-cyclic AMP by isolated Type IV PDE
Assay type: biochemical, bovine
Method: The Type IV PDE is isolated from bovine tracheal smooth muscle using a procedure similar to that previously described by Silver, P. J., Hamel, L. T., Perrone, M. H. Bentley, R. G. Bushover, C. R., Evans, D. B.: Eur. J. Pharmacol. 150:85,1988.(1). Briefly, smooth muscle from bovine trachea is minced and homogenized using a polytron in 10 volumes of an extraction buffer containinhg 10 mM Tris-acetate (pH 7.5), 2 mM magnesium chloride, 1 mM dithiothreitol and 2,000 units/ml of aprotinin. This and all subsequent procedures are performed at 0-4° C. The homogenate is sonicated and then centrifiged at 48,000×g for 30 minutes. The resulting supernatant is applied to a DEAE Trisacryl M column previously equilibrated with sodium acetate and dithiothreitol. After applications of the sample, the column is washed with sodium acetate/dithiothreitol, after which the different forms of PDE are eluted from the column using a linear Tris-HCl/NaCl gradient. Fractions containing Type IV PDE are collected, dialyzed and concentrated to 14% of the original volume. The concentrated fractions are diluted to 50% with ethylene glycol and stored at -20° C.
Enzyme activity is assessed by measuring the hydrolysis of [^3H]-cyclic AMP, as described by Thompson, W. J., Teraski, W. L., Epstein, P. N., Strada, S. J.: Adv. Cyclic Nucleotide Res. 10:69, 1979. The cyclic AMP concentration used in this assay is 0.2 μM, which approximates the Km value. Protein concentration is adjusted to ensure that no more than 15% of the available substrate is hydrolyzed during the incubation period.
All test compounds are dissolved in dimethyl sulfoxide (final concentration of 2.5%). This concentration of dimethyl sulfoxide inhibits enzyme activity by approximately 10%.

[1] = thioisoguanines, Table 2, cyclic AMP 0.2 μM, read-out: Calc IC50 PDE IV
[2] = adenines, Table 7, read-out: calc PDE IV IC50
[3] = dithioxanthines, Table 5, read-out: IC50 PDE IV
[4] = adenines, Table 4, cyclic AMP 0.2 μM, read-out: calc PDE IV IC50

Compound: CCCNc1nc(=S)n(CC2CC2)c2nc(C(C)C)[nH]c12 [3-(cyclopropylmethyl)-3,7-dihydro-8-(1-methyl-ethyl)-6-propylamino-2-thio-2H-purin-2-one hydrochloride]
IC50 [1]: 23.9 µM

Compound: COc1ccc(Cn2cncc3nc(C(C)(C)O)nc2-3)cc1OC1CCC(O)C1 (stereo not shown) [3-[3-(3-Hydroxy-cyclopentyloxy)-4-methoxy-benzyl]-8-(1-hydroxy-1-methyl-ethyl)-3H-purine]
IC50 [2]: 2.25 µM

Compound: CCNc1ncn(Cc2ccc(OC)c(OC3CCC(O)C3)c2)c2nc(C(C)C)nc1-2 (stereo not shown) [3-[3-(3-hydroxy)cyclopentyloxy)]-4-methoxy)benzyl)-6-ethylam] [3-[3-(3-hydroxy)cyclopentyloxy)]-4-methoxy)benzyl)-6-ethylamino-8-isopropyl-3H-purine]
IC50 [2]: 2.28 µM

Compound: CCNc1ncn(Cc2ccc(OC)c(OC3CCCCC3)c2)c2nc(C(C)C)nc1-2 [3-[3-Cyclohexanyl-4-oxy-4-methoxy-benzyl]-6-ethylamino-8-isopropyl-3H-purine]
IC50 [2]: 8.28 µM

Compound: C=C(C)c1nc2c(NCC)ncn(Cc3ccc(OC)c(OC4CCCC4)c3)c-2n1 [3-[(3-cyclopentyloxy-4-methoxy)benzyl]-6-ethylamino-8-(1-methyl-ethenyl)-3H-purine]
IC50 [2]: 0.27 µM

Compound: CCNc1ncn(Cc2ccc(OC)c(OC3CCCC3)c2)c2nc(C(C)(C)O)nc1-2 [3-[(3-cyclopentyloxy-4-methoxy)benzyl]-6-ethylamino-8-[(1-hy] [3-[(3-cyclopentyloxy-4-methoxy)benzyl]-6-ethylamino-8-[(1-hydroxy-1-methyl)ethyl]-3H-purine]
IC50 [2]: 0.85 µM

Compound: CCNc1ncn(Cc2ccc(OC)c(OC3CCCC3)c2)c2nc(C(C)(C)O)nc1-2 [3-[(3-cyclopentyloxy-4-methoxy)benzyl]-8-[(1-methyl-1-hydrox] [3-[(3-cyclopentyloxy-4-methoxy)benzyl]-8-[(1-methyl-1-hydroxy)ethyl]-6-ethylamino-3H-purine]
IC50 [2]: 3.1 µM

Compound: S=c1[nH]c(=S)n(Cc2ccccc2)c2nc[nH]c12 [3-benzyl-3,7-dihydro-2,6-dithio-1H-purine-2,6-dione]
IC50 [3]: 38.5 µM

Compound: CC(C)c1nc2c([nH]1)c(=S)[nH]c(=S)n2Cc1ccccc1 [3-benzyl-3,7-dihydro-8-(1-methylethyl)-2,6-dithio-1H-purine-2,6-dione]
IC50 (read-out: PDE IV I50): 3.4 µM

Compound: CCNc1nc(=S)n(Cc2ccccc2)c2nc(C(C)C)[nH]c12 [3-benzyl-6-ethylamino-3,7-dihydro-8-(1-methyl-ethyl)-2-thio-2H-purin-2-one]
IC50 [1]: 28.4 µM

Compound: CCCCn1c(=S)[nH]c(=S)c2[nH]c(C(C)C)nc21 [3-butyl-3,7-dihydro-8-(1-methylethyl)-2,6-dithio-1H-purine-2,6-dione]
IC50 [3]: 5.93 µM

Compound: CCCCn1cnc(NCC)c2ncnc1-2 [3-butyl-6-ethylamino-3H-purine hydrochloride]
IC50 [4]: 66.4 µM

Compound: CCCCn1c(=S)[nH]c(=S)c2[nH]c(C3CC3)nc21 [3-butyl-8-cyclopropyl-3,7-dihydro-2,6-dithio-1H-purine-2,6-dione]
IC50 [3]: 9.43 µM

Compound: CCCCn1c(=S)nc(NCC)c2[nH]c(C3CC3)nc21 [3-butyl-8-cyclopropyl-3,7-dihydro-6-ethylamino-2-thio-2H-purin-2-one]
IC50 [1]: 34.9 µM

Compound: CCCCn1cnc(NCC)c2nc(C3CC3)nc1-2 [3-butyl-8-cyclopropyl-6-ethylamino-3H-purine hydrochloride]
IC50 [4]: 5.99 µM

Compound: CCNc1ncn(CC2CCCCC2)c2ncnc1-2 [3-cyclohexylmethyl-6-ethylamino-3H-purine hydrochloride]
IC50 [4]: 33 µM

Compound: S=c1[nH]c(=S)n(CC2CCCCC2)c2nc(C3CC3)[nH]c12 [3-cyclohexylmethyl-8-cyclopropyl-3,7-dihydro-2,6-dithio-1H-purine-2,6-dione]
IC50 [3]: 3.03 µM

Compound: CCNc1nc(=S)n(CC2CCCCC2)c2nc(C3CC3)[nH]c12 [3-cyclohexylmethyl-8-cyclopropyl-3,7-dihydro-6-ethylamino-2-thio-2H-purin-2-one]
IC50 [1]: 15.2 µM

Compound: CCNc1ncn(CC2CCCCC2)c2nc(C3CC3)nc1-2 [3-cyclohexylmethyl-8-cyclopropyl-6-ethylamino-3H-purine hydrochloride]
IC50 [4]: 3.78 µM

Compound: CCNc1ncn(CC2CC2)c2nc(C(C)C)nc1-2 [3-cyclopropylmethyl-8-isopropyl-6-ethylamino-3H-purine hydrochloride]
IC50 [4]: 12.7 µM

Compound: CCn1c(=S)[nH]c(=S)c2[nH]c(C(C)C)nc21 [3-ethyl-3,7-dihydro-8-isopropyl-2,6-dithio-1H-purine-2,6-dione]
IC50 [3]: 4.1 µM

Compound: CCn1c(=S)nc(NC2CCCC2)c2[nH]c(C(C)C)nc21 [3-ethyl-6-cyclopentylamino-3,7-dihydro-8-isopropyl-2-thio-2H-purin-2-one]
IC50 [1]: 9.4 µM

Compound: CCn1c(=S)nc(NC2CCCC2)c2[nH]c(C3CC3)nc21 [3-ethyl-6-cyclopentylamino-8-cyclopropyl-3,7-dihydro-2-thio-2H-purin-2-one]
IC50 [1]: 0.19 µM

Compound: CCn1cnc(NCc2ccccc2)c2nc(C3CCCC3)nc1-2 [3-ethyl-8-cyclopentyl-6-benzylamino-3H-purine hydrochloride]
IC50 [4]: 62.4 µM

Compound: CCNc1ncn(CC)c2nc(C3CCCC3)nc1-2 [3-ethyl-8-cyclopentyl-6-ethylamino-3H-purine hydrochloride]
IC50 [4]: 28.3 µM

Compound: CCCCOc1cc(Cn2cnc(NCC)c3nc(C(C)C)nc2-3)ccc1OC [6-Ethylamino-3-(3-butoxy-4-methoxy-benzyl)-8-isopropyl-3H purine]
IC50 [2]: 1.4 µM

Compound: CCNc1ncn(Cc2ccc(OC)c(OC3CN4CCC3CC4)c2)c2nc(C(C)C)nc1-2 (stereo not shown) [6-Ethylamino-3-[3-(2,2,2)-azabicyclooctan-3-yloxy)-4-methoxy]-8-isopropyl-3H-purine]
IC50 [2]: 2.05 µM

More lines, now with the values ahead:

IC50 [4]: 28.9 µM
Compound: CCn1cnc(NCc2ccccc2)c2nc(C(C)C)nc1-2 [3-ethyl-8-isopropyl-6-benzylamino-3H-purine hydrochloride]

IC50 [4]: 52.2 µM
Compound: CCNc1ncn(CC)c2nc(C(C)C)nc1-2 [3-ethyl-8-isopropyl-6-ethylamino-3H-purine hydrochloride]

IC50 [4]: 34.1 µM
Compound: CCCCCCn1cnc(NC)c2ncnc1-2 [3-hexyl-6-methylamino-3H-purine hydrochloride]

IC50 [2]: 4.46 µM
Compound: CCNc1ncn(CCc2ccc(Cl)cc2)c2nc(C(C)C)nc1-2 [3-{2-(4-chlorophenyl)-ethyl]-6-ethylamino-8-isopropyl-3H-purine]

IC50 [2]: 1.85 µM
Compound: COc1ccc(Cn2cnc(N)c3nc(C(C)(C)OCc4ccc(F)cc4)nc2-3)cc1OC [6-Amino-3-(3,4-dimethoxybenzyl)-8-(1-(4-fluorobenzyloxy-1-methyl-ethyl)-3H-purine Hydrochloride]

IC50 [2]: 3.7 µM
Compound: C=C(C)c1nc2c(N)ncn(Cc3ccc(OC)c(OC)c3)c-2n1 [6-Amino-3-(3,4-dimethyoxybenzyl)-8-(1-methylethenyl)-3H-purine]

IC50 [2]: 0.091 µM
Compound: C=C(C)c1nc2c(N)ncn(Cc3ccc(OC)c(OC4CCCC4)c3)c-2n1 [6-Amino-3-(3-cyclopentyloxy-4-methoxy-benzyl)-8-(1-methylethenyl)-3H-purine]

IC50 [2]: 0.31 µM
Compound: COc1ccc(Cn2cnc(N)c3ncnc2-3)cc1OC1CCCC1 [6-Amino-3-(3-cyclopentyloxy-4-methoxybenzyl)-3H-purine]

IC50 [2]: 0.94 µM
Compound: COc1ccc(Cn2cnc(N)c3nc(C(C)(C)OCc4ccccc4)nc2-3)cc1OC [6-Amino-8-(1-benzyloxy-1-methyl-ethyl)-3-(34-dimethoxybenzyl)-3H-purine Hydrochloride]

IC50 (read-out: PDE IV I50): 0.03 µM
Compound: CCCn1cnc(NC2CCCC2)c2nc(C3CC3)nc1-2 [6-Cyclopentylamino-8-cyclopropyl-3-propyl-3H-purine Hydrochloride]

IC50 [2]: 385 µM
Compound: CCNc1ncn(Cc2cc[n+]([O-])cc2)c2nc(C(C)C)nc1-2 [6-Ethylamino-3-(1-oxopyridin-4-yl-methyl)-8-isopropyl-3H-purine]

IC50 [2]: 6.6 µM
Compound: CCNc1ncn(Cc2ccc(OC)c(OCC3CCN(C)CC3)c2)c2nc(C(C)C)nc1-2 [6-Ethylamino-3-[3-(1-methylpiperidin-4-yl-methoxy)-4-methoxy-benzy]-8-isopropyl-3H-purine]

IC50 [2]: 8.95 µM
Compound: CCNc1ncn(Cc2ccc(OC)c(OCCN(C)C)c2)c2nc(C(C)C)nc1-2 [6-Ethylamino-3-[3-(2,2-dimethylaminoethoxy-4-methoxy)]-8-isopropyl-3H-purine]

IC50 [2]: 2.6 µM
Compound: CCNc1ncn(Cc2ccc(OC)c(OC3CCC(O)C3)c2)c2nc(C(C)(C)O)nc1-2 (stereo not shown) [6-Ethylamino-3-[3-(3-hydroxycyclopentyloxy)-4-methoxybenzyl)]-8-(1-hydroxy-1-methylethyl)-3H-purine]

IC50 [2]: 12.5 µM
Compound: CCNc1ncn(Cc2ccc(OC)c(OCC3CCCC3)c2)c2nc(C(C)C)nc1-2 [6-Ethylamino-3-[3-cyclopentylmethoxy-4-methoxy-benzyl]-8-isopropyl-3H-purine]

IC50 [2]: 4.5 µM
Compound: CCNc1ncn(Cc2ccc(OC)c(OCc3cc[n+]([O-])cc3)c2)c2nc(C(C)C)nc1-2 [6-Ethylamino-3-[(3-pyridin-4-yl-methoxy)N-oxide-4-methoxy]-8-isopropyl-3H-purine]
